Test results as given in patent US11203601B2, “Tricyclic compounds as glycogen synthase kinase 3 (GSK3) inhibitors and uses thereof” (The Broad Institute, Inc., priority 2017, dated 2021).

Legend:
Assay in all cases: Carna kinome panel
Format in all cases: biochemical
JAK1 = JAK1 (Homo sapiens (Human), UniProt P23458); settings: read-out: % Inhibition at 10 μM of the test compound
MST1 = MST1 (Homo sapiens (Human), UniProt Q13043); settings: read-out: % Inhibition at 10 μM of the test compound
FES = FES (Homo sapiens (Human), UniProt P07332); settings: read-out: % Inhibition at 10 μM of the test compound
RAF1_Cascade = system: RAF1_Cascade
Protocol: (§1) Briefly, a selection of compounds was screened against a panel of kinases at a single concentration of 10 μM. […] This was completed using one of two assays, depending on the kinase being examined: 1) IMAP Assay. A solution of 4× inhibitor, 4× substrate/ATP/metal solution and 2× kinase solution was prepared with assay buffer (20 mM HEPES, 0.01% Tween-20, 2 mM DTT, pH 7.4) and mixed, then incubated in 384-well black plates for 1 hour at room temperature. The IMAP binding reagent (IMAP Screening Express kit; Molecular Devices) was added to each well and incubated for 30 minutes. […] 2) Off-Chip Mobility Shift Assay (MSA). A solution of 4× inhibitor, 4× substrate/ATP/metal solution and 2× kinase solution was prepared with assay buffer (20 mM HEPES, 0.01% Triton X-100, 2 mM DTT, pH 7.5) and mixed, then incubated in 384-well plates for 1 or 5 hours depending on the kinase, at room temperature. Termination buffer (QuickScout Screening assist MSA; Carna Biosciences) was added to each well. The entire reaction mixture was then applied to a LabChip3000 system (Caliper Life Science), and the product and substrate peptide peaks were separated and quantified. […] The entire reaction mixture was then applied to a LabChip3000 system (Caliper Life Science), and the product and substrate peptide peaks were separated and quantified.

EPHA2 = EPHA2 (Homo sapiens (Human), UniProt P29317); settings: read-out: % Inhibition at 10 μM of the test compound
Haspin = Haspin (Homo sapiens (Human), UniProt Q8TF76); settings: read-out: % Inhibition at 10 μM of the test compound
Chain of Haspin (Q8TF76 whole entry, species assumed): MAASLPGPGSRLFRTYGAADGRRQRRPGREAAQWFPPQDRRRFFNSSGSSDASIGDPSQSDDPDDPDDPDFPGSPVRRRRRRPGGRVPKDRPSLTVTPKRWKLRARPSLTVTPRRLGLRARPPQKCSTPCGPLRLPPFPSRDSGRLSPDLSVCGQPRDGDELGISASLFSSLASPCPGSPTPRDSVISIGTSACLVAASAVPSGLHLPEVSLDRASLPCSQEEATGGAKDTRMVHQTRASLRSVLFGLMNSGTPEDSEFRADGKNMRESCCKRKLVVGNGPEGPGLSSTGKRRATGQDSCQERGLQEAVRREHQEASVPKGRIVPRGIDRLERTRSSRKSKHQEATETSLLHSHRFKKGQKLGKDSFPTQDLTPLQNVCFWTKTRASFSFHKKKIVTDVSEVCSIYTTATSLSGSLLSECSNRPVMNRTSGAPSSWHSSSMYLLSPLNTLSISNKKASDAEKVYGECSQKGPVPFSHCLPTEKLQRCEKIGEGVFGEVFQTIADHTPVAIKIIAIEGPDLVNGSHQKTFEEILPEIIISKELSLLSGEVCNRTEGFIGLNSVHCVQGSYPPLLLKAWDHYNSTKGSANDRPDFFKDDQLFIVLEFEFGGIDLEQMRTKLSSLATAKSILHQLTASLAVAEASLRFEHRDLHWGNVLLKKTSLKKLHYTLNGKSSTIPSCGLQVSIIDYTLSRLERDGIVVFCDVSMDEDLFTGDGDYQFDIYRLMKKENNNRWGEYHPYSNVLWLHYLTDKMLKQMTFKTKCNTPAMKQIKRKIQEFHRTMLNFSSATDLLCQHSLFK

AMPKα1/β1/γ1 = AMPKα1/β1/γ1 (Homo sapiens (Human), UniProt Q13131); settings: read-out: % Inhibition at 10 μM of the test compound
CaMK2β = CaMK2β (Homo sapiens (Human), UniProt Q13554); settings: read-out: % Inhibition at 10 μM of the test compound
BLK = BLK (Homo sapiens (Human), UniProt P51451); settings: read-out: % Inhibition at 10 μM of the test compound
MNK2 = MNK2 (Homo sapiens (Human), UniProt Q9HBH9); settings: read-out: % Inhibition at 10 μM of the test compound
HIPK2 = HIPK2 (Homo sapiens (Human), UniProt Q9H2X6); settings: read-out: % Inhibition at 10 μM of the test compound
FLT4 = FLT4 (Homo sapiens (Human), UniProt P35916); settings: read-out: % Inhibition at 10 μM of the test compound
INSR = INSR (Homo sapiens (Human), UniProt P06213); settings: read-out: % Inhibition at 10 μM of the test compound
EPHA3 = EPHA3 (Homo sapiens (Human), UniProt P29320); settings: read-out: % Inhibition at 10 μM of the test compound
Chain of EPHA3 (P29320 21-983): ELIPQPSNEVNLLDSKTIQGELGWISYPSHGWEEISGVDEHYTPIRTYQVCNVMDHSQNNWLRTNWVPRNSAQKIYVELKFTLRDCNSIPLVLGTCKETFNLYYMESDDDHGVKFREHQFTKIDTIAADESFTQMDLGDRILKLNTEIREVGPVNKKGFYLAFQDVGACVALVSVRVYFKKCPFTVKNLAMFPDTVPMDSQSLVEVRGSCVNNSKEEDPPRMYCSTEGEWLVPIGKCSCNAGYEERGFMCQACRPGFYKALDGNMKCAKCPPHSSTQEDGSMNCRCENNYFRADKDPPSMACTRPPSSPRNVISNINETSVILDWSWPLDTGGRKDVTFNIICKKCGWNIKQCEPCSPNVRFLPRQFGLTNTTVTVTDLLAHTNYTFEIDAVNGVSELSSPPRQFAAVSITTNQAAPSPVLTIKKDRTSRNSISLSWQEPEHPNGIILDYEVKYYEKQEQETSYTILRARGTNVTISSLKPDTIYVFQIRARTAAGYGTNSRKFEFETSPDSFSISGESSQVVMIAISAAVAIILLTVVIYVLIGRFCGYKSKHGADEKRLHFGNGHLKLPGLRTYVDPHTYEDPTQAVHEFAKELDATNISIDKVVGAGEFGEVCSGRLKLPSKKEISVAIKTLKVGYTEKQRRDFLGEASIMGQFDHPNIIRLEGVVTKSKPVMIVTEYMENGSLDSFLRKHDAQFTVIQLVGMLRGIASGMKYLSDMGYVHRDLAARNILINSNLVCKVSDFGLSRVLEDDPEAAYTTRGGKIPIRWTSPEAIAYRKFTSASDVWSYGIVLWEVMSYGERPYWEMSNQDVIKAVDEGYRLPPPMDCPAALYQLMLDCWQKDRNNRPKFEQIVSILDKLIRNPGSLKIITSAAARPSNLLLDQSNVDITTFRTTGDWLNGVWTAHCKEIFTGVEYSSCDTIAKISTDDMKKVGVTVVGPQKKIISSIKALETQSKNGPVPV

MAP3K1_Cascade = system: MAP3K1_Cascade
Protocol: as §1

DYRK1B = DYRK1B (Homo sapiens (Human), UniProt Q9Y463); settings: read-out: % Inhibition at 10 μM of the test compound
Chain of DYRK1B (Q9Y463 whole entry): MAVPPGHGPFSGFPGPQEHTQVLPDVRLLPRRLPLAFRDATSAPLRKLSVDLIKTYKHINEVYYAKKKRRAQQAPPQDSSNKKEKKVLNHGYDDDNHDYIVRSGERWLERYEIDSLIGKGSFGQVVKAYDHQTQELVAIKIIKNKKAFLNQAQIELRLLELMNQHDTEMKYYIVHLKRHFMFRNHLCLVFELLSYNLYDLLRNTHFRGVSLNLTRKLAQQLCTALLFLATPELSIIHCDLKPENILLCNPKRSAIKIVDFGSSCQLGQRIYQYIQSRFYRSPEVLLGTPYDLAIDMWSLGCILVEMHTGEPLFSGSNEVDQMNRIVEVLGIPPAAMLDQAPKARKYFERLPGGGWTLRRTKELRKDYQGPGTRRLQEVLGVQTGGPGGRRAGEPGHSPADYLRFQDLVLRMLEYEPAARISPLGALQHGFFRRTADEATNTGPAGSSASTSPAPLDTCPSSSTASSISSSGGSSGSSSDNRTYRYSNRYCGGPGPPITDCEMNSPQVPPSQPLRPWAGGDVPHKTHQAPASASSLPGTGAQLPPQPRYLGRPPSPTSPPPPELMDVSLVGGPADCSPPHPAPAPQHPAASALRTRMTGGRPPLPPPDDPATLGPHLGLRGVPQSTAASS
Protocol: as §1

GSK3β = GSK3β (Homo sapiens (Human), UniProt P49841)
Chain of GSK3β (P49841 whole entry): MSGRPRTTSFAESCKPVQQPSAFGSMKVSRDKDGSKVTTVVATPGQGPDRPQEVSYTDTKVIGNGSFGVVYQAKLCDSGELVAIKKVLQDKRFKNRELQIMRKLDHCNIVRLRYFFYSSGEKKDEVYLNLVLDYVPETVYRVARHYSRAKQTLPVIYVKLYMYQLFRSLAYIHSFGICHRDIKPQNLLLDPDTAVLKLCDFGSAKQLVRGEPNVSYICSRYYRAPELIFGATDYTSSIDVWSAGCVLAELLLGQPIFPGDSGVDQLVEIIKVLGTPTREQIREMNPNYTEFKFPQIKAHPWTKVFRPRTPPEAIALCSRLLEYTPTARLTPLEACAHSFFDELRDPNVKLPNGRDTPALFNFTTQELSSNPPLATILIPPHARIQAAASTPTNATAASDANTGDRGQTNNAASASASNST
Protocol: A selection of compounds was screened against a selected panel of kinases based on single point inhibitory ability to determine absolute inhibitory activity, leading to selectivity measurements. The assay utilized was identical to that of the single point inhibitory activity determination (MSA) but run in dose response. A solution of 4× inhibitor (5 μL), 4× substrate/ATP Metal solution (5 μL), and 2× Kinase solution (10 μL) was prepared with assay buffer (20 mM HEPES, 0.01% Triton X-100, 2 mM DTT, pH 7.5) and mixed/incubated in 384 well plates for 1 or 5 hours depending on the kinase, at room temperature. A solution of termination buffer (QuickScout Screening assist MSA; Carna Biosciences) (60 μL) was added to each well. The entire reaction mixture was then applied to a LabChip3000 system (Caliper Life Science) and the product and substrate peptide peaks were separated and quantified.
Briefly, a selection of compounds was screened against a panel of kinases at a single concentration of 10 μM. […] The entire reaction mixture was then applied to a LabChip3000 system (Caliper Life Science), and the product and substrate peptide peaks were separated and quantified. […] The entire reaction mixture was then applied to a LabChip3000 system (Caliper Life Science), and the product and substrate peptide peaks were separated and quantified.

MRCKβ = MRCKβ (Homo sapiens (Human), UniProt Q9Y5S2); settings: read-out: % Inhibition at 10 μM of the test compound
NEK9 = NEK9 (Homo sapiens (Human), UniProt Q8TD19); settings: read-out: % Inhibition at 10 μM of the test compound
CaMK2δ = CaMK2δ (Homo sapiens (Human), UniProt Q13557); settings: read-out: % Inhibition at 10 μM of the test compound
KIT(V654A) = KIT(V654A) (Homo sapiens (Human), UniProt P10721, V654A); settings: read-out: % Inhibition at 10 μM of the test compound
CDC2/CycB1 = CDC2/CycB1 (Homo sapiens (Human), UniProt P06493); settings: read-out: % Inhibition at 10 μM of the test compound
MGC42105 = MGC42105 (Homo sapiens (Human), UniProt Q8IY84); settings: read-out: % Inhibition at 10 μM of the test compound
MINK = MINK (Homo sapiens (Human), UniProt Q8N4C8); settings: read-out: % Inhibition at 10 μM of the test compound
RET(S891A) = RET(S891A) (Homo sapiens (Human), UniProt P07949, S891A); settings: read-out: % Inhibition at 10 μM of the test compound
Chain of RET(S891A) (P07949 29-1114 S891A, species assumed): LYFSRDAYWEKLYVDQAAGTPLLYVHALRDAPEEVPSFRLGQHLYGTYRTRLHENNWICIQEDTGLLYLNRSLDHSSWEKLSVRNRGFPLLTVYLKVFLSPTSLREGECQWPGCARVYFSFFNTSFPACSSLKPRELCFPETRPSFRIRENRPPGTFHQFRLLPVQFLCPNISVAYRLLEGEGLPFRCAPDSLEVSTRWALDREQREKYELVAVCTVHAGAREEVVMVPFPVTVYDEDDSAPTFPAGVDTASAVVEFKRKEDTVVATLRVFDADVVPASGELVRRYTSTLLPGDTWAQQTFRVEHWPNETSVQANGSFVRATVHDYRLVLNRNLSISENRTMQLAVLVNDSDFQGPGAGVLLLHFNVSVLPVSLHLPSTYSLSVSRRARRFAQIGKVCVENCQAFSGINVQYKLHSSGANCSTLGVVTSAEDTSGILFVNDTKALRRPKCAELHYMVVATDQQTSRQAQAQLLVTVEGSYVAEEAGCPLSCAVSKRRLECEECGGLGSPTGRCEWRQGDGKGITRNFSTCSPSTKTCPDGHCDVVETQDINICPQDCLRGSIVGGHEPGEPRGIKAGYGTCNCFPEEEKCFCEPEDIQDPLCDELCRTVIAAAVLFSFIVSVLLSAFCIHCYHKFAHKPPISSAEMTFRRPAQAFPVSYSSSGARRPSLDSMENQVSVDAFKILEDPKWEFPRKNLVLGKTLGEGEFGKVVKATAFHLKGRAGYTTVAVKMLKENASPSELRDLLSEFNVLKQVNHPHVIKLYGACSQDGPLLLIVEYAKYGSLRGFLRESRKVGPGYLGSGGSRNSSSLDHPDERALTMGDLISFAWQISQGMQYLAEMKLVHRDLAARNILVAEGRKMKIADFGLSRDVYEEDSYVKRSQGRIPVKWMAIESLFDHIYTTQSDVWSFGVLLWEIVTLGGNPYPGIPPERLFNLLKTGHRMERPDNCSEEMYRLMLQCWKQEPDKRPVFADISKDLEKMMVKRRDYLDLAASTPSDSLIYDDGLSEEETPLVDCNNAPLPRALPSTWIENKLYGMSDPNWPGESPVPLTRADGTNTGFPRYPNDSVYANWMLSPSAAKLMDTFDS

FGFR3(K650E) = FGFR3(K650E) (Homo sapiens (Human), UniProt P22607, K650E); settings: read-out: % Inhibition at 10 μM of the test compound
FGFR4(V550L) = FGFR4(V550L) (Homo sapiens (Human), UniProt P22455, V550L); settings: read-out: % Inhibition at 10 μM of the test compound
BRK = BRK (Homo sapiens (Human), UniProt Q13882); settings: read-out: % Inhibition at 10 μM of the test compound
Chain of BRK (Q13882 whole entry): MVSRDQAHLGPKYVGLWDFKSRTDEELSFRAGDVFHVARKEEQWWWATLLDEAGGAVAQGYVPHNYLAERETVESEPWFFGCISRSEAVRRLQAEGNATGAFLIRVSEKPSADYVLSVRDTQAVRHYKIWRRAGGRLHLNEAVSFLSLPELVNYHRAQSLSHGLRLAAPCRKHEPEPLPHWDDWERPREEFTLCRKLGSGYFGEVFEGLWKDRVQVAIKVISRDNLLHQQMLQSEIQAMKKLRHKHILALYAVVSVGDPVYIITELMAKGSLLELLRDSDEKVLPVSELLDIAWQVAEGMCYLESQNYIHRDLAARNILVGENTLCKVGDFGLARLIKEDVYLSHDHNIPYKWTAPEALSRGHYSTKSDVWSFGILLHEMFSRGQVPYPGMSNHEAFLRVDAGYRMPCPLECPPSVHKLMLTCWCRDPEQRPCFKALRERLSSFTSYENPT

LCK = LCK (Homo sapiens (Human), UniProt P06239); settings: read-out: % Inhibition at 10 μM of the test compound
Chain of LCK (P06239 whole entry): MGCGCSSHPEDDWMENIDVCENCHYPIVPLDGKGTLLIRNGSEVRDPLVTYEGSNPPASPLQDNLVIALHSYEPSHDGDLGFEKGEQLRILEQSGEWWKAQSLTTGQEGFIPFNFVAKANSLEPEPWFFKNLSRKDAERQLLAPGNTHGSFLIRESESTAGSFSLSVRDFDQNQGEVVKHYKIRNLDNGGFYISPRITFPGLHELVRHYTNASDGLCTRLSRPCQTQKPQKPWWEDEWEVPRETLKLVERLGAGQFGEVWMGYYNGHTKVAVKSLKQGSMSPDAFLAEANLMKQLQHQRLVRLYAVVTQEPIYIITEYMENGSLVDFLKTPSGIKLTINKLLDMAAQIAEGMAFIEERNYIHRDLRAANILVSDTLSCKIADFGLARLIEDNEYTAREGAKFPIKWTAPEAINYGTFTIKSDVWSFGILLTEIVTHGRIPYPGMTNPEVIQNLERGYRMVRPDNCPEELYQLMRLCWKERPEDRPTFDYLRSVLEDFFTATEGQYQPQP

PAK2 = PAK2 (Homo sapiens (Human), UniProt Q13177); settings: read-out: % Inhibition at 10 μM of the test compound
IKKε = IKKε (Homo sapiens (Human), UniProt Q14164); settings: read-out: % Inhibition at 10 μM of the test compound
Erk5 = Erk5 (Homo sapiens (Human), UniProt Q13164); settings: read-out: % Inhibition at 10 μM of the test compound
QIK = QIK (Homo sapiens (Human), UniProt Q9H0K1); settings: read-out: % Inhibition at 10 μM of the test compound

CCC1(c2ccccc2)C2=C(CC(C)(C)CC2=O)Nc2ncsc21 (stereo not shown) [Compound 1, 9-Ethyl-6,6-dimethyl-9-phenyl-5,6,7,9-tetrahydrothiazolo[4,5-b]quinolin-8(4H)-one]
inhibition at 10 µM (JAK1): -6.4%
inhibition at 10 µM (MST1): -6.6%
inhibition at 10 µM (FES): -6.2%
% Inhibition at 10 μM of the test compound (RAF1_Cascade): −6.7%
inhibition at 10 µM (EPHA2): -0.3%
inhibition at 10 µM (Haspin): 1.5%
inhibition at 10 µM (AMPKα1/β1/γ1): 7.6%
inhibition at 10 µM (CaMK2β): 2.8%
inhibition at 10 µM (BLK): 5%
inhibition at 10 µM (MNK2): -2.8%
inhibition at 10 µM (HIPK2): -2.5%
inhibition at 10 µM (FLT4): -0.2%
inhibition at 10 µM (INSR): 4.1%
inhibition at 10 µM (EPHA3): 22.5%
% Inhibition at 10 μM of the test compound (MAP3K1_Cascade): −1.0%
inhibition at 10 µM (DYRK1B): -18.1%
IC50 (GSK3β; GSK3β): 0.137 µM
inhibition at 10 µM (GSK3β; read-out: % Inhibition at 10 μM of the test compound): 97.7%
inhibition at 10 µM (MRCKβ): 2%
inhibition at 10 µM (NEK9): 0.3%
inhibition at 10 µM (CaMK2δ): -8.6%
inhibition at 10 µM (KIT(V654A)): -3.5%
inhibition at 10 µM (CDC2/CycB1): 22.7%
inhibition at 10 µM (MGC42105): 4.3%
inhibition at 10 µM (MINK): 1.5%
inhibition at 10 µM (RET(S891A)): 1.4%
inhibition at 10 µM (FGFR3(K650E)): -3%
inhibition at 10 µM (FGFR4(V550L)): 3.3%
inhibition at 10 µM (BRK): 0.3%
inhibition at 10 µM (LCK): 1.7%
inhibition at 10 µM (PAK2): -15.7%
inhibition at 10 µM (IKKε): 4.2%
inhibition at 10 µM (Erk5): -0.6%
inhibition at 10 µM (QIK): 6.9%
